Laboratory results from patent US4401812A, “Anthracycline antibiotics” (Hoffmann-La Roche Inc., priority 1980, dated 1983).
Values after ≈ are worked out from the molar mass of the structure shown. Like-named read-outs stand apart in the source and are kept apart here.

Experiments:
[1] = tested on: Mycobacterium smegmatis IFO-13167; assay: in vitro MIC, agar streak method; type: cell-based; settings: Mycolicibacterium smegmatis, IFO13167
Excerpt: (§1) | ^(1) Heart infusion agar

[2] = tested on: Bacillus subtilis IAM-1027; assay: in vitro MIC, agar streak method; type: cell-based; settings: Bacillus subtilis IAM-1027, Heart infusion agar
Excerpt: as §1

[3] = tested on: Staphylococcus aureus 209P Stf; assay: in vitro MIC, agar streak method; type: cell-based; settings: Heart infusion agar
Excerpt: as §1

[4] = tested on: Escherichia coli NIHJ IFO-12734; assay: in vitro MIC, agar streak method; type: cell-based; settings: Escherichia coli NIHJ IFO-12734, Heart infusion agar
Excerpt: as §1

[5] = tested on: Micrococcus flavus ATCC-10240; assay: in vitro MIC, agar streak method; type: cell-based; settings: Heart infusion agar
Excerpt: as §1

[6] = tested on: Pseudomonas aeruginosa IFO-12689; assay: in vitro MIC, agar streak method; type: cell-based; settings: IFO12689, Heart infusion agar
Excerpt: as §1

[7] = tested on: Escherichia coli K-12 IAM-1264; assay: in vitro MIC, agar streak method; type: cell-based; settings: Escherichia coli K-12 IAM-1264, Heart infusion agar
Excerpt: as §1

P388 leukaemia = assay: Antitumor effect against P388 leukaemia in CDF1 mice; type: in vivo; settings: Mus musculus, ip, days 1, 5 and 9, 1×10^6 P388 cells i.p., CDF1 mice, read-out: Mean survival (T/C, %); for response vs control in vivo at 3.75 mg/kg: 3.75 mg/kg/day i.p.; for response vs control in vivo at 7.5 mg/kg: 7.5 mg/kg/day i.p.; for response vs control in vivo at 15 mg/kg: 15.0 mg/kg/day i.p.; for response vs control in vivo at 1.5 mg/kg: 1.5 mg/kg/day i.p.; for response vs control in vivo at 3 mg/kg: 3.0 mg/kg/day i.p.; for response vs control in vivo at 6 mg/kg: 6.0 mg/kg/day i.p.; for response vs control in vivo at 12 mg/kg: 12.0 mg/kg/day i.p.
Protocol: The anthracycline glycosides provided by the present invention were tested against P388 leukaemia in mice. When CDF1 mice are inoculated with 1×10^6 cells of P388 intraperitoneally and each of the antibiotics is administered intraperitoneally on days 1, 5 and 9, the survival time of the treated mice is prolonged as shown in Table 5 hereinafter.

[8] = tested on: Staphylococcus aureus 209P IAM-1011; assay: in vitro MIC, agar streak method; type: cell-based; settings: Heart infusion agar
[9] = tested on: Candida albicans ATCC-10231; assay: in vitro MIC, agar streak method; type: cell-based; settings: Candida albicans ATCC-10231, Sabouraud dextrose agar
Excerpt: (§2) | ^(2) Sabouraud dextrose agar

[10] = tested on: Candida tropicalis ATCC-13803; assay: in vitro MIC, agar streak method; type: cell-based; settings: Candida tropicalis ATCC-13803, Sabouraud dextrose agar
Excerpt: as §2

Sarcina lutea IAM1009 = assay: in vitro MIC, agar streak method; type: cell-based; settings: Heart infusion agar
in vivo = settings: mouse, ip, mice, single i.p. injection, judged 72 hours after, read-out: acute intraperitoneal LD50
Protocol: The acute intraperitoneal LD50 in mice judged 72 hours after a single injection of the antibiotics is about 90 mg/kg for auramycin C, auramycin D, sulfurmycin C and sulfurmycin D, 40~80 mg/kg for auramycin G and sulfurmycin G and 20~40 mg/kg for auramycin E and sulfurmycin E.

Bacillus cereus Rol79B = assay: in vitro MIC, agar streak method; type: cell-based; settings: Heart infusion agar
Excerpt: as §1

[11] = tested on: Staphylococcus epidermidis IFO-12993; assay: in vitro MIC, agar streak method; type: cell-based; settings: Heart infusion agar
Excerpt: as §1

[12] = ATCC10240, Micrococcus flavus ATCC-10240, read-out: MIC
[13] = Micrococcus luteus, IAM1009, Sarcina lutea IAM-1009, read-out: MIC
[14] = Micrococcus flavus, ATCC10240, Micrococcus flavus ATCC-10240, read-out: MIC
[15] = Staphylococcus epidermidis, IFO12993, Staphylococcus epidermidis IFO-12993, read-out: MIC
[16] = Staphylococcus aureus, read-out: MIC

Structure (SMILES) | MIC ([2]; IAM1027, read-out: MIC) | MIC [3] | MIC ([4]; IFO12734, read-out: MIC) | MIC [5, 12] | MIC [6] | MIC ([7]; IAM1264, read-out: MIC) | response vs control in vivo at 3.75 mg/kg (P388 leukaemia) | response vs control in vivo at 7.5 mg/kg (P388 leukaemia) | response vs control in vivo at 15 mg/kg (P388 leukaemia) | MIC ([8]; read-out: MIC) | MIC ([9]; ATCC10231, read-out: MIC) | MIC ([10]; ATCC13803, read-out: MIC) | MIC (Sarcina lutea IAM1009; [13]) | LD50 at 72 h (in vivo) | MIC (Bacillus cereus Rol79B; read-out: MIC) | MIC [5, 14] | MIC [11, 15] | response vs control in vivo at 1.5 mg/kg (P388 leukaemia) | response vs control in vivo at 3 mg/kg (P388 leukaemia) | response vs control in vivo at 6 mg/kg (P388 leukaemia) | further results
COC(=O)C1c2cc3c(c(O)c2C(OC2CC(N(C)C)C(OC4CC(O)C(O)C(C)O4)C(C)O2)CC1(C)O)C(=O)c1c(O)cccc1C3=O (centres unmarked) [Auramycin C] | 6.25 µg/mL (≈ 9.11 µM) | 6.25 µg/mL (≈ 9.11 µM) | > 50 µg/mL | 6.25 µg/mL (≈ 9.11 µM) | > 50 µg/mL | > 50 µg/mL | 130% | 141% | 128% | 6.25 µg/mL (≈ 9.11 µM) | > 50 µg/mL | > 50 µg/mL | 6.25 µg/mL (≈ 9.11 µM) | ~90 mg/kg |  |  |  |  |  |  | MIC [1]: 6.25 µg/mL (≈ 9.11 µM); response vs control in vivo at 1.88 mg/kg (P388 leukaemia; 1.88 mg/kg/day i.p.): 135%
COC(=O)C1c2cc3c(c(O)c2C(OC2CC(N(C)C)C(O)C(C)O2)CC1(C)O)C(=O)c1c(O)cccc1C3=O (centres unmarked) [Auramycin D] | 12.5 µg/mL (≈ 22.5 µM) | 12.5 µg/mL (≈ 22.5 µM) | > 50 µg/mL | 12.5 µg/mL (≈ 22.5 µM) | > 50 µg/mL | > 50 µg/mL | 103% | 149% | 141% | 12.5 µg/mL (≈ 22.5 µM) | > 50 µg/mL | > 50 µg/mL | 6.25 µg/mL (≈ 11.2 µM) | ~90 mg/kg |  |  |  |  |  |  | MIC ([1]; Mycobacterium smegmatis IFO-13167, Heart infusion agar, read-out: MIC): 3.13 µg/mL (≈ 5.63 µM)
COC(=O)C1c2cc3c(c(O)c2C(OC2CC(N(C)C)C(OC4CC(O)C(OC5CCC(O)C(C)O5)C(C)O4)C(C)O2)CC1(C)O)C(=O)c1c(O)cccc1C3=O (centres unmarked) [Auramycin E] | 3.12 µg/mL (≈ 3.9 µM) |  | > 50 µg/mL |  |  | > 50 µg/mL |  |  |  |  | > 50 µg/mL | > 50 µg/mL | 3.12 µg/mL (≈ 3.9 µM) | 20 to 40 mg/kg | 0.39 µg/mL (≈ 0.488 µM) | 3.12 µg/mL (≈ 3.9 µM) | 3.12 µg/mL (≈ 3.9 µM) | 131% | 139% | 158% | response vs control in vivo at 12 mg/kg (P388 leukaemia): 165%; MIC [8, 16]: 1.56 µg/mL (≈ 1.95 µM)
COC(=O)C1c2cc3c(c(O)c2C(OC2CC(N(C)C)C(OC4CC(O)C(OC5CCC(O)C(C)O5)C(C)O4)C(C)O2)CC1(C)O)C(=O)c1c(O)cccc1C3=O (centres unmarked) [Auramycin F] |  |  |  |  |  |  |  |  |  |  |  |  |  |  |  |  |  |  |  |  | MIC [2]: 3.12 µg/mL (≈ 3.9 µM); MIC [4]: > 50 µg/mL; MIC (Bacillus cereus Rol79B): 0.39 µg/mL (≈ 0.488 µM); MIC ([5]; Micrococcus flavus ATCC-10240): 3.12 µg/mL (≈ 3.9 µM); MIC [7]: > 50 µg/mL; MIC ([11]; Staphylococcus epidermidis IFO-12993): 3.12 µg/mL (≈ 3.9 µM); MIC [8]: 3.12 µg/mL (≈ 3.9 µM); MIC [9]: > 50 µg/mL; MIC [10]: > 50 µg/mL; MIC (Sarcina lutea IAM1009; Sarcina lutea IAM-1009): 3.12 µg/mL (≈ 3.9 µM)
COC(=O)C1c2cc3c(c(O)c2C(OC2CC(N(C)C)C(OC4CCC(OC5CCC(O)C(C)O5)C(C)O4)C(C)O2)CC1(C)O)C(=O)c1c(O)cccc1C3=O (centres unmarked) [Auramycin G] | 12.5 µg/mL (≈ 15.9 µM) |  | > 50 µg/mL |  |  | > 50 µg/mL |  |  |  |  | > 50 µg/mL | > 50 µg/mL | 6.25 µg/mL (≈ 7.97 µM) | 40 to 80 mg/kg | 0.78 µg/mL (≈ 0.995 µM) | 6.25 µg/mL (≈ 7.97 µM) | 6.25 µg/mL (≈ 7.97 µM) | 102% | 109% | 105% | response vs control in vivo at 12 mg/kg (P388 leukaemia): 119%; MIC [8, 16]: 6.25 µg/mL (≈ 7.97 µM)
